Measured values published in patent US20080279897A1, “Method of Treating Cellular Damage” (MEDVET SCIENCE PTY. LTD., priority 2005, published 2008).
Entries after “also recorded” stand apart in the source; their conditions may differ.

How the values were obtained:
[1] = test system: SphK; experiment: SphK activity in aorta and heart of STZ-induced diabetic rats; type: in vivo, rat; conditions: STZ-induced diabetic rats treated with insulin, 2 wk post-onset of diabetes
Method: Male Sprague-Dawley rats weighing 270-290 g were housed in a room under controlled temperature conditions (22° C.) and 12/12-hr of light/dark cycles. Diabetes was induced with 80 mg/kg streptozotocin (STZ) (Sigma-Aldrich) dissolved in citrate buffer (20 mM, pH 4.5) that was administered as a single intraperitoneal injection. Control rats were injected with an equivalent volume of the vehicle only. After injection (24 h), diabetes was diagnosed by the development of hyperglycaemia (>14 mmol/L blood glucose). One-half of the diabetic rats were randomly selected to receive insulin treatment (Linplant, one implant/200 g body wt; LinShin, Canada). Blood glucose levels were monitored every 4 days using Glucostix reagent strips (Boehringer Mannheim, Indianapolis, Ind.). Two weeks after the onset of diabetes, rats were killed for the study. […]
As described previously (Xia et al., 1999, J. Biol. Chem. 274:34499-34505), SphK activity was routinely determined using D-erythro-sphingosine (Biomol, Plymouth Meeting, Pa.) and [γ^32P]ATP (Geneworks, Adelaide, Australia) as substrates, and defined as picomoles of S1P formed per min per mg protein. The formation of S1P in vivo was measured in the permeabilized cells as previously described (Xia et al., 1998, Proc. Natl. Acad. Sci. U.S.A 95:14196-14201).

[2] = Glycemic control in STZ-induced diabetic rats; type: in vivo, rat; conditions: insulin pump, within several hours
Method: Male Sprague-Dawley rats weighing 270-290 g were housed in a room under controlled temperature conditions (22° C.) and 12/12-hr of light/dark cycles. Diabetes was induced with 80 mg/kg streptozotocin (STZ) (Sigma-Aldrich) dissolved in citrate buffer (20 mM, pH 4.5) that was administered as a single intraperitoneal injection. Control rats were injected with an equivalent volume of the vehicle only. After injection (24 h), diabetes was diagnosed by the development of hyperglycaemia (>14 mmol/L blood glucose). One-half of the diabetic rats were randomly selected to receive insulin treatment (Linplant, one implant/200 g body wt; LinShin, Canada). […] […] All experiments were conducted in accordance with the PC-2 procedure of Institute of Medical and Veterinary Science (IMVS) and approved by the IMVS Animal Ethics Committee.

[3] = test system: sphingosine kinase; experiment: Sphingosine kinase activity in vitro (vascular endothelial cells); type: cell-based

Substance: insulin
- SphK activity in aorta of diabetic rats [1]: significant reduction; also recorded: completely prevented
- SphK activity in heart of diabetic rats [1]: significant reduction; also recorded: completely prevented
- glycemic control [2]: near euglycemia
- inhibitory effect on sphingosine kinase activity in vitro [3]: no inhibitory effect
